Results on 20 compounds are retold here after patent US10793564B2, “Amino acid compounds and methods of use” (Pliant Therapeutics, Inc., priority 2018, dated 2020).

A value given as a limit tells only on which side of the number the result lay.

Sequence of recombinant human integrin αVβ6 (P06756 31-992): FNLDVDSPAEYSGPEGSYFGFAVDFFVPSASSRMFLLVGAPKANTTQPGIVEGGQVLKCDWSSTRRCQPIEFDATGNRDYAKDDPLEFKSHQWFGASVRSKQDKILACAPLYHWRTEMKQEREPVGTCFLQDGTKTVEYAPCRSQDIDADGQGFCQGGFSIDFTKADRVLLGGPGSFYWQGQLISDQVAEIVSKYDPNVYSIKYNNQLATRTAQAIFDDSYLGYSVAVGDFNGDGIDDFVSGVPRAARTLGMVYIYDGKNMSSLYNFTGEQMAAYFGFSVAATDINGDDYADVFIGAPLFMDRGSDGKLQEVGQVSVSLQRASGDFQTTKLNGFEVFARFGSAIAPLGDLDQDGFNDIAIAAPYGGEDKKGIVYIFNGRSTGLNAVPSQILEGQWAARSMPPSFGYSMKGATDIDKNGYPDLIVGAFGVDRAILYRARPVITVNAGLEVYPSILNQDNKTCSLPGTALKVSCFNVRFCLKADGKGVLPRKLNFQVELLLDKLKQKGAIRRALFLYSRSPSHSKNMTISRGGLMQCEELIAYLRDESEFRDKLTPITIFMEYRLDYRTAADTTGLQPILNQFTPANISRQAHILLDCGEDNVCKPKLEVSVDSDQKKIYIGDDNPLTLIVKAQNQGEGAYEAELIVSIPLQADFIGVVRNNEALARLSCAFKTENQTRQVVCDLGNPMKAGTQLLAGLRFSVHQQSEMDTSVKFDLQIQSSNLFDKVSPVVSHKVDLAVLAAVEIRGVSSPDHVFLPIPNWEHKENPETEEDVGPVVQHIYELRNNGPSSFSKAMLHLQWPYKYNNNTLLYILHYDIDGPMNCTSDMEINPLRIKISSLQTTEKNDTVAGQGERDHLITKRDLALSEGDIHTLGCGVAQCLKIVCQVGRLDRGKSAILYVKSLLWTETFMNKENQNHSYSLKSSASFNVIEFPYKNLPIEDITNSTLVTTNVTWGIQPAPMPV
Sequence of recombinant human integrin αVβ6 (P18564 22-707): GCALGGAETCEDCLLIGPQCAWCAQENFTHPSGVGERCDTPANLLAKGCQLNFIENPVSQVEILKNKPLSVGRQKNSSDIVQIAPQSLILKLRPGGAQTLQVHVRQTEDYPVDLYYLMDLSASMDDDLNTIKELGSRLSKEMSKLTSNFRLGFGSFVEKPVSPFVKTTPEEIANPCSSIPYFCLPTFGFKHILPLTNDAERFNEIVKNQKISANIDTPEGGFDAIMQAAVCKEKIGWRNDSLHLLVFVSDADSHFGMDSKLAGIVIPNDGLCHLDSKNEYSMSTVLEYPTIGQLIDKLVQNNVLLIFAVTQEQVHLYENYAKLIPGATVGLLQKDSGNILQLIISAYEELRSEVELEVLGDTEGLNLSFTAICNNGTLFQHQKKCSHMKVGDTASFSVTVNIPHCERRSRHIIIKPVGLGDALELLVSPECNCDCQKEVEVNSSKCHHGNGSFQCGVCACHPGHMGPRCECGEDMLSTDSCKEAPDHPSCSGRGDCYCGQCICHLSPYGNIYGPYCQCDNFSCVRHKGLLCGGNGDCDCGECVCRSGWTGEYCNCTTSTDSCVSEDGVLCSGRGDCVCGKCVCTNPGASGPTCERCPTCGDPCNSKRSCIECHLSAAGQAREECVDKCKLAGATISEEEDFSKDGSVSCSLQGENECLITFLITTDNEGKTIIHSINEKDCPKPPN

The assay concerns the target recombinant human integrin αVβ6 (Homo sapiens (Human), UniProt P06756+P18564). Kind of assay: Solid phase integrin αVβ6 binding assay. As to conditions: inhibition of recombinant TGFβ1 LAP binding to coated integrin, IC50 presented in four ranges, read-out: αvβ6 Inhibition IC50 (nM) - range. The gist of the method:
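Plates coated with recombinant human αVβ6 (2 μg/mL) and blocked; compounds competed with TGFβ1 LAP (0.67 μg/mL) in Mn2+ (0.5 mM)/BSA/sucrose TBS for 2 h at 25° C. Bound LAP detected by biotin anti-LAP and peroxidase-streptavidin; IC50 by four-parameter logistic fit.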
For the compound `O=C(O)[C@H](CCN(CCCCc1ccc2c(n1)NCCC2)C1CC1)Nc1ncnc2[nH]ncc12` [Compound 116, (S)-2-((1H-pyrazolo[3,4-d]pyrimidin-4-yl)amino)-4-(cyclopropyl(4-(5,6,7,8-tetrahydro-1,8-naphthyridin-2-yl)butyl)amino) butanoic Acid], the IC50 fell in the range of 50 to 250 nM.

Regarding `O=C(O)[C@H](CCN(CCCCc1ccc2c(n1)NCCC2)CCOc1ccccc1)Nc1ncc(C2CC2)cn1` [Compound 117, (S)-2-((5-cyclopropylpyrimidin-2-yl)amino)-4-((2-phenoxyethyl) (4-(5,6,7,8-tetrahydro-1,8-naphthyridin-2-yl)butyl)amino) butanoic Acid], the IC50 is less than 50 nM.

For `N#Cc1cnc(N[C@@H](CCN(CCCCc2ccc3c(n2)NCCC3)CC(F)F)C(=O)O)nc1` [Compound 118, (S)-2-((5-cyanopyrimidin-2-yl)amino)-4-((2,2-difluoroethyl) (4-(5,6,7,8-tetrahydro-1,8-naphthyridin-2-yl)butyl)amino) butanoic Acid], the IC50 is more than 1000 nM.

As for `O=C(O)[C@H](CCN(CCCCc1ccc2c(n1)NCCC2)CC(F)F)Nc1ncncc1-c1ccccc1` [Compound 119, (S)-4-((2,2-difluoroethyl) (4-(5,6,7,8-tetrahydro-1,8-naphthyridin-2-yl)butyl)amino)-2-((5-phenylpyrimidin-4-yl)amino) butanoic Acid], the IC50 is more than 1000 nM.

Turning to `O=C(O)[C@H](CCN(CCCCc1ccc2c(n1)NCCC2)CC(F)F)Nc1ccncn1` [Compound 120, (S)-4-((2,2-difluoroethyl) (4-(5,6,7,8-tetrahydro-1,8-naphthyridin-2-yl)butyl)amino)-2-(pyrimidin-4-ylamino) butanoic Acid], the IC50 is more than 1000 nM.

With `O=C(O)[C@H](CCN(CCCCc1ccc2c(n1)NCCC2)CC(F)F)Nc1ncc(F)cn1` [Compound 121, (S)-4-((2,2-difluoroethyl) (4-(5,6,7,8-tetrahydro-1,8-naphthyridin-2-yl)butyl)amino)-2-((5-fluoropyrimidin-2-yl)amino) butanoic Acid], the IC50 was more than 1000 nM.

With `Cc1cc(N[C@@H](CCN(CCCCc2ccc3c(n2)NCCC3)CC(F)F)C(=O)O)nc(-c2ccncc2)n1` [Compound 122, (S)-4-((2,2-difluoroethyl) (4-(5,6,7,8-tetrahydro-1,8-naphthyridin-2-yl)butyl)amino)-2-((6-methyl-2-(pyridin-4-yl)pyrimidin-4-yl)amino) butanoic Acid], the IC50 was in the range of 250 to 1000 nM.

As to `Cn1ncc2c(N[C@@H](CCN(CCCCc3ccc4c(n3)NCCC4)CCOc3ccc(F)cc3)C(=O)O)ncnc21` [Compound 123, (S)-4-((2-(4-fluorophenoxy)ethyl) (4-(5,6,7,8-tetrahydro-1,8-naphthyridin-2-yl)butyl)amino)-2-((1-methyl-1H-pyrazolo[3,4-d]pyrimidin-4-yl)amino) butanoic Acid], the IC50 was less than 50 nM.

In the case of `CO[C@H](C)CN(CCCCc1ccc2c(n1)NCCC2)CC[C@H](Nc1ncc(C2CC2)cn1)C(=O)O` [Compound 124, (S)-2-((5-cyclopropylpyrimidin-2-yl)amino)-4-(((R)-2-methoxypropyl) (4-(5,6,7,8-tetrahydro-1,8-naphthyridin-2-yl)butyl)amino) butanoic Acid], the IC50 was less than 50 nM.

For the compound `CS(=O)(=O)CCN(CCCCc1ccc2c(n1)NCCC2)CC[C@H](Nc1ncnc2[nH]ncc12)C(=O)O` [Compound 125, (S)-2-((1H-pyrazolo[3,4-d]pyrimidin-4-yl)amino)-4-((2-(methylsulfonyl)ethyl) (4-(5,6,7,8-tetrahydro-1,8-naphthyridin-2-yl)butyl)amino) butanoic Acid], the IC50 lay in the range of 50 to 250 nM.

In the case of `CS(=O)(=O)CCN(CCCCc1ccc2c(n1)NCCC2)CC[C@H](Nc1cc(-n2cccn2)ncn1)C(=O)O` [Compound 126, (S)-2-((6-(1H-pyrazol-1-yl)pyrimidin-4-yl)amino)-4-((2-(methylsulfonyl)ethyl) (4-(5,6,7,8-tetrahydro-1,8-naphthyridin-2-yl)butyl)amino) butanoic Acid], the IC50 was more than 1000 nM.

Consider `COC[C@@H](F)CN(CCCCc1ccc2c(n1)NCCC2)CC[C@H](Nc1cc(-c2ccccc2)ncn1)C(=O)O` [Compound 128, (S)-4-(((S)-2-fluoro-3-methoxypropyl) (4-(5,6,7,8-tetrahydro-1,8-naphthyridin-2-yl)butyl)amino)-2-((6-phenylpyrimidin-4-yl)amino) butanoic Acid], for which the IC50 was more than 1000 nM.

As for `O=C(O)[C@H](CCN(CCCCc1ccc2c(n1)NCCC2)CC1CCO1)Nc1ncnc2ccccc12` (stereo partly drawn) [Compound 129, (2S)-4-((oxetan-2-ylmethyl) (4-(5,6,7,8-tetrahydro-1,8-naphthyridin-2-yl)butyl)amino)-2-(quinazolin-4-ylamino) butanoic Acid], the IC50 is less than 50 nM.

Turning to `O=C(O)[C@H](CCN(CCCCc1ccc2c(n1)NCCC2)CC(CO)CO)Nc1ncnc2ccccc12` [Compound 130, (S)-4-((3-hydroxy-2-(hydroxymethyl)propyl) (4-(5,6,7,8-tetrahydro-1,8-naphthyridin-2-yl)butyl)amino)-2-(quinazolin-4-ylamino) butanoic Acid], the IC50 is less than 50 nM.

In the case of `O=C(O)[C@H](CCN(CCCCc1ccc2c(n1)NCCC2)CCC(F)F)Nc1ncc(C(F)(F)F)cn1` [Compound 132, (S)-4-((3,3-difluoropropyl) (4-(5,6,7,8-tetrahydro-1,8-naphthyridin-2-yl)butyl)amino)-2-((5-(trifluoromethyl)pyrimidin-2-yl)amino) butanoic Acid], the IC50 was 50 to 250 nM.

With `Cn1ncc2c(N[C@@H](CCN(CCCCc3ccc4c(n3)NCCC4)CCC(F)F)C(=O)O)ncnc21` [Compound 133, (S)-4-((3,3-difluoropropyl) (4-(5,6,7,8-tetrahydro-1,8-naphthyridin-2-yl)butyl)amino)-2-((1-methyl-1H-pyrazolo[3,4-d]pyrimidin-4-yl)amino) butanoic Acid], the IC50 lay in the range of 50 to 250 nM.

For `O=C(O)[C@H](CCN(CCCCc1ccc2c(n1)NCCC2)CCC(F)F)Nc1ccnc(C(F)(F)F)n1` [Compound 134, (S)-4-((3,3-difluoropropyl) (4-(5,6,7,8-tetrahydro-1,8-naphthyridin-2-yl)butyl)amino)-2-((2-(trifluoromethyl)pyrimidin-4-yl)amino) butanoic Acid], the IC50 lay in the range of 50 to 250 nM.

In the case of `Cn1ncc2c(N[C@@H](CCN(CCCF)CCCCc3ccc4c(n3)NCCC4)C(=O)O)ncnc21` [Compound 136, (S)-4-((3-fluoropropyl) (4-(5,6,7,8-tetrahydro-1,8-naphthyridin-2-yl)butyl)amino)-2-((1-methyl-1H-pyrazolo[3,4-d]pyrimidin-4-yl)amino) butanoic Acid], the IC50 was less than 50 nM.

On to `O=C(O)[C@H](CCN(CCCF)CCCCc1ccc2c(n1)NCCC2)Nc1ncc(C(F)(F)F)cn1` [Compound 137, (S)-4-((3-fluoropropyl) (4-(5,6,7,8-tetrahydro-1,8-naphthyridin-2-yl)butyl)amino)-2-((5-(trifluoromethyl)pyrimidin-2-yl)amino) butanoic Acid], for which the IC50 is less than 50 nM.

In the case of `N#Cc1cnc(N[C@@H](CCN(CCCCc2ccc3c(n2)NCCC3)CCOc2ccc(F)cc2)C(=O)O)nc1` [Compound 138, (S)-2-((5-cyanopyrimidin-2-yl)amino)-4-((2-(4-fluorophenoxy)ethyl) (4-(5,6,7,8-tetrahydro-1,8-naphthyridin-2-yl)butyl)amino) butanoic Acid], the IC50 was less than 50 nM.
